Organism: Rattus norvegicus
Experiment: DrugMatrix - Regimen: Daily Repeat
Type: toxicity, organism-based, Sprague-Dawley
Parameters: regimen Daily Repeat, gender Male, age 6-8 weeks
Details: in vivo, po, route oral GAVAGE, vehicle .5 % CMC; for ABSOLUTE BASOPHIL / ABSOLUTE EOSINOPHIL / ABSOLUTE LYMPHOCYTE / ABSOLUTE MONOCYTE / ABSOLUTE SEGMENTED NEUTROPHIL / BASOPHIL / EOSINOPHIL / ERYTHROCYTE COUNT / HEMATOCRIT / HEMOGLOBIN / LEUKOCYTE COUNT / LYMPHOCYTE / MEAN CORPUSCULAR HEMOGLOBIN / MEAN CORPUSCULAR HEMOGLOBIN CONCENTRATION / MEAN CORPUSCULAR VOLUME / MONOCYTE / NEUTROPHIL / NUCLEATED RED BLOOD CELLS / PLATELET COUNT: tissue Blood; for ALANINE AMINOTRANSFERASE / ALBUMIN / ALKALINE PHOSPHATASE / ASPARTATE AMINOTRANSFERASE / BLOOD UREA NITROGEN / CARBON DIOXIDE / CHLORIDE / CHOLESTEROL / CREATINE PHOSPHOKINASE / CREATININE / GLUCOSE / LACTATE DEHYDROGENASE / LIPASE / PHOSPHORUS / POTASSIUM / SODIUM / TOTAL BILIRUBIN / TOTAL PROTEIN / URIC ACID: tissue Plasma
[1] = 10 mg/kg, 72 h, dose level Low, time 3 day
[2] = 10 mg/kg, 120 h, dose level Low, time 5 day
[3] = 1500 mg/kg, 72 h, dose level High, time 3 day
[4] = 1500 mg/kg, 120 h, dose level High, time 5 day

NS(=O)(=O)c1cc2c(cc1Cl)NCNS2(=O)=O [HYDROCHLOROTHIAZIDE]
ABSOLUTE BASOPHIL [1]: 0 CELLS/uL
ABSOLUTE EOSINOPHIL [1]: 69 CELLS/uL
ABSOLUTE LYMPHOCYTE [1]: 10610.67 CELLS/uL
ABSOLUTE MONOCYTE [1]: 107.67 CELLS/uL
ABSOLUTE SEGMENTED NEUTROPHIL [1]: 3446 CELLS/uL
BASOPHIL [1]: 0%
EOSINOPHIL [1]: 0.33%
ERYTHROCYTE COUNT [1]: 5.79 x10E6/uL
HEMATOCRIT [1]: 34.73%
HEMOGLOBIN [1]: 13.77 G/DL
LEUKOCYTE COUNT [1]: 14.23 x10E3/uL
LYMPHOCYTE [1]: 77.33%
MEAN CORPUSCULAR HEMOGLOBIN [1]: 23.8 pg
MEAN CORPUSCULAR HEMOGLOBIN CONCENTRATION [1]: 39.67 G/DL
MEAN CORPUSCULAR VOLUME [1]: 60.07 fL
MONOCYTE [1]: 1%
NEUTROPHIL [1]: 21.33%
NUCLEATED RED BLOOD CELLS [1]: 0 /100WBC
PLATELET COUNT [1]: 1306 x10E3/uL
ALANINE AMINOTRANSFERASE [1]: 49 u/L
ALBUMIN [1]: 4.17 G/DL
ALKALINE PHOSPHATASE [1]: 352 u/L
ASPARTATE AMINOTRANSFERASE [1]: 90.67 u/L
BLOOD UREA NITROGEN [1]: 14.33 mg/dL
CARBON DIOXIDE [1]: 24.33 mmol/L
CHLORIDE [1]: 103 MEQ/L
CHOLESTEROL [1]: 65.67 mg/dL
CREATINE PHOSPHOKINASE [1]: 517.67 u/L
CREATININE [1]: 0.15 mg/dL
GLUCOSE [1]: 149.33 mg/dL
LACTATE DEHYDROGENASE [1]: 306.67 u/L
LIPASE [1]: 10 u/L
PHOSPHORUS [1]: 12.73 mg/dL
POTASSIUM [1]: 6.56 MEQ/L
SODIUM [1]: 144.2 MEQ/L
TOTAL BILIRUBIN [1]: 0.2 mg/dL
TOTAL PROTEIN [1]: 5.87 G/DL
URIC ACID [1]: 2.5 mg/dL
ABSOLUTE BASOPHIL [2]: 0 CELLS/uL
ABSOLUTE EOSINOPHIL [2]: 0 CELLS/uL
ABSOLUTE LYMPHOCYTE [2]: 12129.67 CELLS/uL
ABSOLUTE MONOCYTE [2]: 37.67 CELLS/uL
ABSOLUTE SEGMENTED NEUTROPHIL [2]: 1466 CELLS/uL
BASOPHIL [2]: 0%
EOSINOPHIL [2]: 0%
ERYTHROCYTE COUNT [2]: 5.92 x10E6/uL
HEMATOCRIT [2]: 36.07%
HEMOGLOBIN [2]: 14.23 G/DL
LEUKOCYTE COUNT [2]: 13.63 x10E3/uL
LYMPHOCYTE [2]: 89.67%
MEAN CORPUSCULAR HEMOGLOBIN [2]: 24.03 pg
MEAN CORPUSCULAR HEMOGLOBIN CONCENTRATION [2]: 39.47 G/DL
MEAN CORPUSCULAR VOLUME [2]: 60.83 fL
MONOCYTE [2]: 0.33%
NEUTROPHIL [2]: 10%
NUCLEATED RED BLOOD CELLS [2]: 0 /100WBC
PLATELET COUNT [2]: 1189.67 x10E3/uL
ALANINE AMINOTRANSFERASE [2]: 46 u/L
ALBUMIN [2]: 4.07 G/DL
ALKALINE PHOSPHATASE [2]: 390.67 u/L
ASPARTATE AMINOTRANSFERASE [2]: 89.67 u/L
BLOOD UREA NITROGEN [2]: 13.67 mg/dL
CARBON DIOXIDE [2]: 25.33 mmol/L
CHLORIDE [2]: 101.67 MEQ/L
CHOLESTEROL [2]: 62 mg/dL
CREATINE PHOSPHOKINASE [2]: 269.33 u/L
CREATININE [2]: 0.2 mg/dL
GLUCOSE [2]: 162.33 mg/dL
LACTATE DEHYDROGENASE [2]: 281.67 u/L
LIPASE [2]: 9 u/L
PHOSPHORUS [2]: 11.27 mg/dL
POTASSIUM [2]: 6.59 MEQ/L
SODIUM [2]: 143.33 MEQ/L
TOTAL BILIRUBIN [2]: 0.17 mg/dL
TOTAL PROTEIN [2]: 5.83 G/DL
URIC ACID [2]: 2 mg/dL
ABSOLUTE BASOPHIL [3]: 0 CELLS/uL
ABSOLUTE EOSINOPHIL [3]: 0 CELLS/uL
ABSOLUTE LYMPHOCYTE [3]: 11188.67 CELLS/uL
ABSOLUTE MONOCYTE [3]: 0 CELLS/uL
ABSOLUTE SEGMENTED NEUTROPHIL [3]: 1278 CELLS/uL
BASOPHIL [3]: 0%
EOSINOPHIL [3]: 0%
ERYTHROCYTE COUNT [3]: 5.96 x10E6/uL
HEMATOCRIT [3]: 35.57%
HEMOGLOBIN [3]: 13.93 G/DL
LEUKOCYTE COUNT [3]: 12.47 x10E3/uL
LYMPHOCYTE [3]: 90%
MEAN CORPUSCULAR HEMOGLOBIN [3]: 23.43 pg
MEAN CORPUSCULAR HEMOGLOBIN CONCENTRATION [3]: 39.2 G/DL
MEAN CORPUSCULAR VOLUME [3]: 59.7 fL
MONOCYTE [3]: 0%
NEUTROPHIL [3]: 10%
NUCLEATED RED BLOOD CELLS [3]: 0.67 /100WBC
PLATELET COUNT [3]: 1140 x10E3/uL
ALANINE AMINOTRANSFERASE [3]: 52.67 u/L
ALBUMIN [3]: 4.17 G/DL
ALKALINE PHOSPHATASE [3]: 353.33 u/L
ASPARTATE AMINOTRANSFERASE [3]: 88.33 u/L
BLOOD UREA NITROGEN [3]: 19 mg/dL
CARBON DIOXIDE [3]: 31 mmol/L
CHLORIDE [3]: 95.33 MEQ/L
CHOLESTEROL [3]: 70.67 mg/dL
CREATININE [3]: 0.2 mg/dL
GLUCOSE [3]: 159.33 mg/dL
LACTATE DEHYDROGENASE [3]: 413 u/L
LIPASE [3]: 9.67 u/L
PHOSPHORUS [3]: 11.27 mg/dL
POTASSIUM [3]: 5.57 MEQ/L
SODIUM [3]: 141.57 MEQ/L
TOTAL BILIRUBIN [3]: 0.17 mg/dL
TOTAL PROTEIN [3]: 5.8 G/DL
URIC ACID [3]: 1.43 mg/dL
ABSOLUTE BASOPHIL [4]: 0 CELLS/uL
ABSOLUTE EOSINOPHIL [4]: 84 CELLS/uL
ABSOLUTE LYMPHOCYTE [4]: 12827 CELLS/uL
ABSOLUTE MONOCYTE [4]: 104 CELLS/uL
ABSOLUTE SEGMENTED NEUTROPHIL [4]: 1585 CELLS/uL
BASOPHIL [4]: 0%
EOSINOPHIL [4]: 0.67%
ERYTHROCYTE COUNT [4]: 5.59 x10E6/uL
HEMATOCRIT [4]: 33.87%
HEMOGLOBIN [4]: 13.63 G/DL
LEUKOCYTE COUNT [4]: 14.6 x10E3/uL
LYMPHOCYTE [4]: 88%
MEAN CORPUSCULAR HEMOGLOBIN [4]: 24.4 pg
MEAN CORPUSCULAR HEMOGLOBIN CONCENTRATION [4]: 40.23 G/DL
MEAN CORPUSCULAR VOLUME [4]: 60.63 fL
MONOCYTE [4]: 0.67%
NEUTROPHIL [4]: 10.67%
NUCLEATED RED BLOOD CELLS [4]: 0 /100WBC
PLATELET COUNT [4]: 1221.67 x10E3/uL
ALANINE AMINOTRANSFERASE [4]: 64.67 u/L
ALBUMIN [4]: 4.33 G/DL
ALKALINE PHOSPHATASE [4]: 393 u/L
ASPARTATE AMINOTRANSFERASE [4]: 80 u/L
BLOOD UREA NITROGEN [4]: 20 mg/dL
CARBON DIOXIDE [4]: 31.33 mmol/L
CHLORIDE [4]: 97 MEQ/L
CHOLESTEROL [4]: 69 mg/dL
CREATINE PHOSPHOKINASE [4]: 157.67 u/L
CREATININE [4]: 0.2 mg/dL
GLUCOSE [4]: 153.33 mg/dL
LACTATE DEHYDROGENASE [4]: 110.33 u/L
LIPASE [4]: 10 u/L
PHOSPHORUS [4]: 12.1 mg/dL
POTASSIUM [4]: 6.18 MEQ/L
SODIUM [4]: 144.7 MEQ/L
TOTAL BILIRUBIN [4]: 0.2 mg/dL
TOTAL PROTEIN [4]: 5.97 G/DL
URIC ACID [4]: 1.57 mg/dL

Reference: ChEMBL document CHEMBL3885881, “DrugMatrix”
